According to publication PMC6792352, “Limited Chemical Structural Diversity Found to Modulate Thyroid Hormone Receptor in the Tox21 Chemical Library” (Environmental Health Perspectives, 2019):
Structures can show the parent of a compound that is named as a salt.

test: in vitro; conditions: rat, gh3-tre-luc cells, AC50 (uM) modified / 1000

| SMILES | CC50 at 24 h [µM] |
| --- | --- |
| O=C(O)[C@@H](S)[C@H](S)C(=O)O [(2R,3R)-2,3-Dimercaptosuccinic acid] | 22.8 |
| COc1ccc2c(c1OC)CN1CCc3cc4c(cc3[C@@H]1C2)OCO4 [Canadine] | > 20 |
| Cc1cccc(C(C)(C)C)c1O [2-tert-Butyl-6-methylphenol] | > 90 |
| CC(=O)Oc1cc(C(C)C)c(OCCN(C)C)cc1C [Moxisylyte hydrochloride] | > 20 |
| COc1ccc(C2CNC(=O)C2)cc1OC1CCCC1 (stereo not shown) [Rolipram] | > 20 |
| CCOC(=O)[N-]c1cn(N2CCOCC2)n[o+]1 [Molsidomine] | > 20 |
| CCc1cccc(CC)c1NC(=O)CN(CC(=O)O)CC(=O)O [Etifenin] | > 20 |
| CC(NNC(=O)c1ccccc1)c1ccccc1 (stereo not shown) [Benmoxin] | > 50 |
| O=[N+]([O-])c1ccc(F)cc1F [2,4-Difluoronitrobenzene] | > 90 |
| COC(=O)CC[C@H](N)C(=O)O [(5)-Methyl L-glutamate] | > 50 |
| O=C(O)CCCC[C@@H]1SC[C@@H]2NC(=O)N[C@@H]21 [Biotin] | > 90 |
| C/C=C(/CC[C@@H](C)[C@H]1CC[C@H]2C3=CC[C@H]4[C@H](C)[C@@H](O)CC[C@]4(C)[C@H]3CC[C@]12C)C(C)C [Sitosterol alpha1] | > 50 |
| CCCCCCCCC(=O)Cl [Nonanoyl chloride] | > 90 |
| COc1ccc2c(c1OC)C(=O)O[C@@H]2[C@H]1c2c(cc3c(c2OC)OCO3)CCN1C [Noscapine] | 15 |
| O[C@@H]([C@H](O)[C@H](O)CBr)[C@H](O)CBr [Dibromomannitol] | > 90 |
| NNC(N)=O [Semicarbazide hydrochloride] | > 90 |
| CCn1nc(C(=O)O)c(=O)c2cc3c(cc21)OCO3 [Cinoxacin] | > 20 |
| O=C(NC(=O)c1c(F)cccc1F)Nc1ccc(Oc2ccc(C(F)(F)F)cc2Cl)cc1F [Flufenoxuron] | 34.6 |
| CC1(C)[C@H](C(=O)OCc2coc(Cc3ccccc3)c2)[C@@H]1/C=C1\CCSC1=O [Kadethrin] | > 90 |
| ON(Cc1ccccc1)Cc1ccccc1 [N-Benzyl-N-hydroxy-1-phenylmethanamine] | > 90 |
| Cc1ccccc1S [2-Methylbenzenethiol] | > 70 |
| BrC(Br)C(Br)Br [1,1,2,2-Tetrabromoethane] | > 90 |
| c1ccc2c(c1)Sc1ccccc1N2CC1CN2CCC1CC2 (stereo not shown) [Mequitazine] | 7.76 |
| C=C[Si](OC)(OC)OC [Vinyltrimethoxysilane] | > 90 |
| CCN1CCCC1CNC(=O)c1cc(S(=O)(=O)CC)c(N)cc1OC (stereo not shown) [Amisulpride] | > 50 |
| CCN(CC)CCNC(=O)c1ccc(N)cc1 [Procainamide hydrochloride] | > 90 |

| SMILES | CC50 at 24 h [µM] |
| --- | --- |
| C=C(C)C(=O)OC [Methyl methacrylate] | > 90 |
| CN(C)Cc1cc(C(C)(C)C)c(O)c(C(C)(C)C)c1 [2,6-Di-tert-butyl-4-[(dimethylamino)methyl]phenol] | 50.7 |
| CC(=O)Oc1ccc(C(=C2CCCCC2)c2ccc(OC(C)=O)cc2)cc1 [Cyclofenil] | > 50 |
| CO[C@@H]1[C@@H](OC(N)=O)[C@@H](O)[C@H](Oc2ccc3c(O)c(NC(=O)c4ccc(O)c(CC=C(C)C)c4)c(=O)oc3c2C)OC1(C)C [Novobiocin sodium] | > 20 |
| CC(=O)O[C@@H]1C[C@H]2CC[C@]1(C)C2(C)C [Isobornyl acetate] | > 90 |
| CCN1CN(CC)CN(CC)C1 [1,3,5-Triethylhexahydro-s-triazine] | > 90 |
| C=CCCCCCCCCC(=O)O [10-Undecenoic acid] | > 90 |
| FC(F)(F)c1ccccc1Cl [2-Chlorobenzotrifluoride] | > 90 |
| Cc1cccc(C)c1O [2,6-Dimethylphenol] | > 90 |
| c1ccc(CN(CC2=NCCN2)c2ccccc2)cc1 [Antazoline hydrochloride] | 21.1 |
| CCCCCCCCCCCCCCCCCC[N+](C)(C)C [N,N,N-Trimethyloctadecan-1-aminium chloride] | 13.4 |
| CCCCCCCCCCCOC(=O)c1ccccc1C(=O)OCCCCCCCCCCC [Diundecyl phthalate] | > 50 |
| OCCN(CCO)CCN(CCO)CCO [2,2',2'',2'''-(1,2-Ethanediyldinitrilo)tetrakisethanol] | > 90 |
| CS(=O)(=O)c1ccc([C@@H](O)[C@@H](CF)NC(=O)C(Cl)Cl)cc1 [Florfenicol] | > 20 |
| CC(O)COCC(C)O (stereo not shown) [1,1'-Oxybis-2-propanol] | > 90 |
| CCOc1cc(OCC)c(C(C)=O)cc1OCC [2,4,5-Triethoxyacetophenone] | 35.3 |
| C[C@@H](O[C@H]1OCCN(Cc2n[nH]c(=O)[nH]2)[C@H]1c1ccc(F)cc1)c1cc(C(F)(F)F)cc(C(F)(F)F)c1 [Aprepitant] | 11 |
| CCC(CO)(CO)COCC(CC)(CO)CO [2,2'-(Oxydimethanediyl)bis(2-ethylpropane-1,3-diol)] | > 90 |
| CCC1(c2ccc(N)cc2)CCC(=O)NC1=O (stereo not shown) [Aminoglutethimide] | > 50 |
| CCCCCCCOC(=O)CCC [Heptyl butanoate] | > 90 |
| CCCCN [Butylamine] | > 50 |
| Nc1ccn(C[C@@H](CO)OCP(=O)(O)O)c(=O)n1 [Cidofovir] | > 50 |
| O=S(=O)(O)c1cc(O)c2c(/N=N/c3ccc(Nc4ccccc4)c4c(S(=O)(=O)O)cccc34)cc(S(=O)(=O)O)cc2c1 [Anazolene sodium] | 22.8 |
| CC(C)(Oc1ccc(C2CCCc3ccccc32)cc1)C(=O)O (stereo not shown) [Nafenopin] | > 50 |
| CCO[Si](CCCN)(OCC)OCC [3-Aminopropyltriethoxysilane] | > 90 |
| O=C1OC(=O)c2c(Cl)c(Cl)c(Cl)c(Cl)c21 [Tetrachlorophthalic anhydride] | > 90 |

| SMILES | CC50 at 24 h [µM] |
| --- | --- |
| Cc1cc(C)c(/C=C2\C(=O)Nc3ccccc32)[nH]1 [SU-5416] | > 50 |
| CC1(C)CCC(NC(=O)[C@@H](N)CCC(=O)O)CC1 [Neboglamine] | > 50 |
| CC(=O)CC(=O)c1ccccc1 [1-Benzoylacetone] | > 90 |
| N[C@H](CC(=O)O)C(=O)O [D-Aspartic acid] | > 50 |
| CC(C)C/C=C(/C=O)c1ccccc1 [5-Methyl-2-phenyl-2-hexenal] | 64.6 |
| CCOc1cc(OCC)c(C(=O)CCC(=O)O)cc1OCC [Trepibutone] | > 50 |
| Nc1cc(N)cc(C(=O)O)c1 [3,5-Diaminobenzoic acid] | > 90 |
| COC(=O)Nc1nc2ccc(C(=O)c3ccccc3)cc2[nH]1 [Mebendazole] | 0.337 |
| CCCCCC(=O)CC [3-Octanone] | > 90 |
| COc1cc(C)ccc1O [2-Methoxy-4-methylphenol] | > 90 |
| Clc1ccccn1 [2-Chloropyridine] | > 90 |
| C#CCOC(=O)[C@@H](C)Oc1ccc(Oc2ncc(Cl)cc2F)cc1 [Clodinafop-propargyl] | > 90 |
| CCCCC(=O)N(C)C [N,N-Dimethylpentanamide] | > 90 |
| CC[C@H](C)[C@H](N)C(=O)O (racemic) [DL-Isoleucine] | > 50 |
| CO/N=C(\C(=O)N[C@@H]1C(=O)N2C(C(=O)[O-])=C(C[n+]3ccn4ncccc43)CS[C@H]12)c1nsc(N)n1 [Cefozopran hydrochloride] | > 50 |
| Clc1ccc(C(Cn2ccnc2)OCc2ccsc2Cl)c(Cl)c1 (stereo not shown) [Tioconazole] | 14.7 |
| COc1ccccc1C=CC=O [2-Methoxycinnamaldehyde] | 77.5 |
| Cc1ccccc1C(N)=O [2-Methylbenzamide] | > 90 |
| C#C[C@]1(O)CC[C@H]2[C@@H]3CCc4cc(OC5CCCC5)ccc4[C@H]3CC[C@@]21C [Quinestrol] | 16 |
| CC(C)COC(=O)/C=C/c1ccccc1 [Isobutyl 3-phenylacrylate] | > 90 |
| CN(C)C [Trimethylamine hydrochloride] | > 90 |
| CN(C1CCCCC1)S(=O)(=O)c1ccccc1N [2-Amino-N-cyclohexyl-N-methylbenzenesulfonamide] | > 90 |
| CCCCNC(=O)NS(=O)(=O)c1ccc(N)cc1 [Carbutamide] | > 90 |
| NCCNCCO [N-(Hydroxyethyl)ethylenediamine] | > 90 |
| CC(C)c1ccc2c(c1)CC[C@H]1[C@](C)(CN)CCC[C@]21C [Dehydroabietylamine acetate] | 10.1 |

same assay, conditions: rat, gh3-tre-luc cells, AC50 (uM) modified / 1000, Tox21_110001=Tox21_111921; viability, 1 nM T3 present, 24 h

| SMILES | CC50 at 24 h [µM] |
| --- | --- |
| CCCC(C)(COC(N)=O)COC(=O)NC1CC1 (stereo not shown) [Lorbamate] | > 50 |

same assay, conditions: rat, gh3-tre-luc cells, AC50 (uM) modified / 1000, Tox21_110001=Tox21_112509; viability, 1 nM T3 present, 24 h

| SMILES | CC50 at 24 h [µM] |
| --- | --- |
| NC1=NC(=O)C(c2ccccc2)O1 (stereo not shown) [Pemoline] | > 50 |

same assay, conditions: rat, gh3-tre-luc cells, AC50 (uM) modified / 1000, Tox21_110001=Tox21_112832; viability, 1 nM T3 present, 24 h

| SMILES | CC50 at 24 h [µM] |
| --- | --- |
| CCC(=O)OC1(c2ccccc2)CCN(C)CC1 [1-Methyl-4-phenyl-4-propionoxypiperidine hydrochloride] | > 100 |

same assay, conditions: rat, gh3-tre-luc cells, AC50 (uM) modified / 1000, Tox21_110001=Tox21_112872; viability, 1 nM T3 present, 24 h

| SMILES | CC50 at 24 h [µM] |
| --- | --- |
| CCN(CC)C(=O)[C@@H]1C=C2c3cccc4[nH]cc(c34)C[C@H]2N(C)C1 [Lysergide] | > 200 |

same assay, conditions: rat, gh3-tre-luc cells, AC50 (uM) modified / 1000, Tox21_110001=Tox21_113508; viability, 1 nM T3 present, 24 h

| SMILES | CC50 at 24 h [µM] |
| --- | --- |
| CCN(CC)C(=O)[C@@H]1C=C2c3cccc4[nH]cc(c34)C[C@H]2N(C)C1 [Lysergide] | > 50 |

same assay, conditions: rat, gh3-tre-luc cells, AC50 (uM) modified / 1000, Tox21_110001=Tox21_200144; viability, 1 nM T3 present, 24 h

| SMILES | CC50 at 24 h [µM] |
| --- | --- |
| Cc1ccc(N=C=O)cc1N=C=O [Toluene diisocyanate] | > 90 |

same assay, conditions: rat, gh3-tre-luc cells, AC50 (uM) modified / 1000, Tox21_110001=Tox21_300964; viability, 1 nM T3 present, 24 h

| SMILES | CC50 at 24 h [µM] |
| --- | --- |
| O=C(CCl)NCO [2-Chloro-N-(hydroxymethyl)acetamide] | > 90 |

same assay, conditions: rat, gh3-tre-luc cells, AC50 (uM) modified / 1000, Tox21_110001=Tox21_301078; viability, 1 nM T3 present, 24 h

| SMILES | CC50 at 24 h [µM] |
| --- | --- |
| COP(=O)(OC)O/C(C)=C/C(=O)N(C)C [Dicrotophos] | > 90 |
